The results in this text go back to patent US9657260B2, “Method and system for continous monitoring of toxicity” (Yissum Research Development Company of The Hebrew …, priority 2014, dated 2017).

Series [1] is described as follows: in vitro. The conditions noted are these: human. Here is the method:
(§1) Reactor Seeding. The following steps of cell seeding and reactor assembly were carried out in a sterile hood. Prior to seeding cells into the reactor, the PDMS-based well unit and all tubings were cleaned and sterilized with 70% EtOH, washed with ddH2O, dried and subsequently exposed to UV light for at least 30 min. The cells were detached from the tissue culture substrate with trypsin-EDTA (Biochrom, Berlin, Germany), counted, centrifuged at 280 rpm for 5 min at 4° C. and resuspended with 100 μl of collagen type I solution to a final density of 4×10^6 cells per device. During resuspension of the cells, 300 μg to 500 μg oxygen sensing beads (CPOx-50-RuP, Colibri Photonics, Potsdam, Germany) were added, resulting in at least ten to 20 beads per microwell after completion of the cell seeding protocol. The collagen type I solution was made of 560 μl ddH2O, 100 μl PBS (10×), 6.25 μl of 1 N NaOH and 333 μl of collagen type I (3.6 mg ml^−1, BD Biosciences, San Jose, Calif., USA). The PDMS microwells were primed for 5 min on ice with this solution in order to eliminate air bubbles from the wells. Subsequently, 100 μl of collagen type I suspension containing cells and oxygen-sensing beads was placed on top of the PDMS-based well unit, thus covering all nine microwells. The unit was kept in a sterile 50.8 mm petri dish placed on ice for 5 min in order to allow the cells to sediment into the wells. The low temperature prevented premature collagen polymerization and the induction of cellular stress response pathways. Afterwards, excess cell and microbead suspension was gently but thoroughly wiped off the PDMS-based well unit using a sterile glass coverslip (FIG. 2C) leading to a concentration of 100,000 cells/well. The inoculated well unit was then incubated for 5 min at 37° C. in a humidified cell incubator (see above) at 5% CO2 in order to polymerize the collagen and by this immobilize the cells and microbeads in the wells. Following polymerization, the well unit, loaded with the cells, was immersed in 5 ml of MEM medium (composition see above) for 20 min at 37° C. in a cell incubator (see above). Subsequently, the PDMS-based well unit was transferred into the bioreactor. After sealing, the bioreactor was placed into the climate control chamber (37° C., ACUO2, Evotec, Germany) of an inverted fluorescence microscope (IX81, Olympus, Japan) and perfused with MEM (composition see above) supplemented with 10 mM HEPES with a flow rate of 10 μl min^−1 using a syringe pump (Harvard Apparatus, USA). The automated and motorized microscope stage was equipped with a holder for three microreactors, allowing for performing three experiments simultaneously.
(§2) Chemical compound injection. […] Succinate as the substrate for complex II was used as an electron donor for the putatively toxicologically affected complex I in the mitochondrial electron transfer system (ETS), whereas TMPD was used to donate electrons to cytochrome c in order to test for a putative toxicological effect on complex III in the ETS. Ascorbate was used to maintain TMPD in a reduced state. The cytotoxic effects were evaluated by real-time monitoring of the change in oxygen consumption and for subsequent confirmation of the toxicological endpoints also by specific conventional staining assays (see below).
(§3) Oxygen measurement. Real-time oxygen measurements were performed optically by means of phosphorescence quenching. Biocompatible polystyrene microbeads with a diameter of 50 μm equipped with a ruthenium-phenanthroline-based phosphorescence dye (CPOx-50-RuP, Colibri Photonics, Potsdam, Germany) were used as microprobes and were coimmobilized with the cells (FIG. 1D) in the collagen matrix during reactor seeding (described above). The electronic measurement system (OPAL, Colibri Photonics, Germany) comprises a control module, an LED as the excitation source and a detector unit (FIG. 1A).

Series [2] deals with HepG2/C3A cells. The experiment in a line: Electrochemical glucose and lactate sensing at the bioreactor outflow. The format is cell-based, human. The note with it: 50 μM; for lactate over glucose ratio reached after exposure: before exposure 1.3 (rotenone), 1.2 (Troglitazone). The procedure: Cells respond to mitochondrial dysfunction by adapting their metabolic response to circumvent oxidative phosphorylation. To track this response electrochemical sensors for glucose and lactate were attached to bioreactor outflow in a PMMA housing with 16 μl dead volume (FIG. 5 A-C). Samples were collected sequentially using a computer controlled microfluidic switchboard (FIG. 5D). Micromechanical valves (FIG. 5E) introduced a sequence of (1) washing buffer, (2) air bubble interface, and (3) a bioreactor sample every hour. Proof of principle was shown with 50 μM rotenone, a direct mitochondrial C1 inhibitor, causing an 80% loss in respiration (FIG. 5F). […] Importantly, the system is sensitive enough to detect minute signals and off target effects. […] Lactate over glucose ratio increases slightly from 1.2 to 1.8, showing a shift toward glycolysis (FIG. 5I).

In series [3] the test system is HeLa cells. The experiment in a line: Real-time oxygen uptake of HeLa cells in the bioreactor. The note with it: for effect of ascorbate and TMPD on the loss of oxygen uptake: 10 μM, preincubation with 2 mM ascorbate and 0.5 mM TMPD. In kind it is cell-based, human. From the text:
Chemical compound injection.
Oxygen measurement. […] Thus, the camera port was kept available for imaging.

Series [4] relates to HepG2/C3A cells. The experiment in a line: in vitro. The conditions noted are these: for % of normal respiration: within 60 minutes (fast phase); for time to onset of mitochondrial (respiratory) damage: human. The procedure:
as §1, §2, §3

For series [5], the system named is HepG2/C3A spheroids. In kind it is cell-based, human. Here is the method: Quantitative Real Time Polymerase Chain Reaction (qRT-PCR). RNA was isolated and purified utilizing Macherey-Nagel NucleoSpin RNA II kit according to manufacturer instructions. RNA concentration and purity was determined using NanoDrop ND-1000 spectrophotometer (Thermo Fisher Scientific, USA). cDNA was synthesized from 1 μg RNA sample using qScript cDNA SuperMix (Quanta BioSciences, USA) according to the manufacturer protocol. Gene expression analysis was carried out utilizing KAPA SYBR FAST Universal 2X qPCR Master Mix (Kapa Biosystems, Boston, USA) on BioRad CFX96 Real-Time System (New South Wales, Australia), according to the manufacturer protocol. Gene transcription was evaluated using the ΔΔCt method normalized to 60S ribosomal protein L32 (RPL32) or ubiquitin C (UBC).

In series [6] the test system is HepG2/C3A cells. The experiment in a line: HCS LipidTOX staining for steatosis and phospholipidosis. The note with it: 24 hr exposure to amiodarone (200 pM as printed elsewhere in the source). The format is cell-based, human. The procedure:
Steatosis and phospholipidosis were evaluated using the HCS LipidTOX™ system (Life Technologies, USA) according to manufacturer directions. Briefly, cells were incubated with green neutral lipid and red phospholipidosis dyes and counterstained with 1 μg/mL Hoechst 33342 for 30 min, and washed with PBS. LipidTOX green and red staining intensity were normalized to number of Hoechst-labeled nuclei.

Setting [7] is: HeLa cells, 12.5 mM acetaminophen.

Values joined by “and” are separate entries in the source; they are usually repeats but may differ in a detail not shown here. Identical values can stand only once. “Also recorded” adds a separate entry of the source.

`Cc1c(C)c2c(c(C)c1O)CCC(C)(COc1ccc(CC3SC(=O)NC3=O)cc1)O2` (centres unmarked) [Troglitazone] returned a CC50 in series [1] of 300 µM. Further, the “lactate over glucose ratio reached after exposure” value in series [2] turned out to be 1.8.

Take Antimycin A: the “effect of ascorbate and TMPD on the loss of oxygen uptake” value in series [3] (HeLa) is “abrogated”; in series [3] (HeLa, listed as antimycin A) it was “abrogated the toxic response”.

For `CC(=O)Nc1ccc(O)cc1` [acetaminophen], the “% of normal respiration” value in series [4] (8 mM acetaminophen) is recorded as 70%. In addition, the “% of normal respiration” value in series [4] (12.5 mM acetaminophen) was 55%. Also, in series [4] (16 mM acetaminophen), the “% of normal respiration” value was determined as 25%. In series [3] (setting [7]), the “mitochondrial respiration immediately after exposure” value is given as “identical rapid loss of mitochondrial respiration; also recorded: identical immediate loss of mitochondrial respiration”, the “second dose-independent phase of toxicity” value was “failed to display the second dose-independent phase of toxicity; also recorded: absent in HeLa cells” and the “time at which the rapid loss of respiration ends” value amounted to 60 min. Also, in series [3] (HeLa, 12.5 mM acetaminophen, 2 mM ascorbate and 0.5 mM TMPD), the “effect of ascorbate and TMPD on the toxic response” value is “eliminated the toxicity; also recorded: abrogated the toxic response”. In addition, in series [3] (HeLa, 12.5 mM acetaminophen, preincubation with 20 mM succinate), the “effect of succinate on the toxic response” value is recorded as “no effect on the toxicity; also recorded: did not affect HeLa response”.

`C[S+](C)[O-]` [DMSO]: in series [5], the cell viability entry is “little affect on cell viability” and the “increase in PXR expression” value worked out at 8 fold. Further, in series [5] (1%, 28 days), the “increase in MRP3 expression” value is 10 fold.

Take `C=C(C)[C@H]1Cc2c(ccc3c2O[C@@H]2COc4cc(OC)c(OC)cc4[C@@H]2C3=O)O1` [rotenone]: the loss in respiration in series [4] (50 μM) is on record as 80%. The “glucose uptake after 6 hours” value in series [2] (after 6 hours, shift to glutaminolysis) is given as “loss of glucose uptake”. The “lactate over glucose ratio reached after exposure” value in series [2] is on record as 2.5.

Take `CCCCc1oc2ccccc2c1C(=O)c1cc(I)c(OCCN(CC)CC)c(I)c1` [amiodarone]: the “time to onset of mitochondrial (respiratory) damage” value stood at 15 h in series [4] (200 µM), 6 h in series [4] (500 µM) and 2 h in series [4] (1000 µM). In series [6], the “increase in intracellular lipids (steatosis)” value is 2.1 fold and 2 fold and > 2 fold. The increase in phospholipidosis in series [6] was 2.4 fold and 2.5 fold and > 2 fold.
